From patent US9718879B2, “Methods of treating pain by inhibition of VGF activity” (IMPERIAL INNOVATIONS LTD., priority 2012, dated 2017)
Entries after “also recorded” stand apart in the source; their conditions may differ. No end group written: not given here.

Experiments:
[1] = tested on: cultured bone marrow-derived macrophages; assay: TLQP-21-elicited intracellular Ca2+ increase in cultured macrophages (Fluo-4); format: cell-based; conditions: for increase in intracellular Ca2+ levels: 100 nM peptide, cultured macrophages, Fluo-4
Procedure: (§1) Cell images show the Fluo-4 fluorescence associated with different time points during the recording.
(§2) A possible explanation for the absence of a Ca2+ response from a second application of TLQP-21 is that there is a biological de-sensitisation occurring such as phosphorylation of the receptor. It is also possible that this could be due to depletion of Ca2+ in internal stores such as ER, however, this is less likely because the de-sensitisation occurs even with sufficient time (2 hours) to recover and replenish the Ca2+, and ATP treatment gave an increase in intracellular Ca2+ levels. Actually this de-sensitisation by TLQP-21 has also been observed in cerebellar granule cells.
These peptides were either commercially sourced or provided by Neusentis/Pfizer. The effects of VGF peptides on sensory neurons was analysed using whole-cell current-clamp recordings on cultured DRG neurons. Responses of cells to depolarising current pulses will be analysed before and after superfusion of peptides and their efficacy and potency established. The nociceptive phenotype of the cells was confirmed by superfusing capsaicin to the cells at the end of the recordings, and analysing the action potential and current threshold of the cells. Based on our pilot data with LQEQ-19, we expected that some of these peptides will increase the activity of nociceptive neurons. The activation of microglia and macrophage was studied on two parameters, intracellular Ca^2+ increase and P38 MAP kinase phosphorylation. The phosphorylation levels of P38 MAP kinase was investigated as shown before^20. Once we identified peptides capable of activating sensory neurons and/or microglia/macrophage, confirmed the specific effects using scrambled peptides.

cultured brain microglia = assay: Intracellular Ca2+ increase in cultured brain microglia; format: cell-based, rat; conditions: 100 nM
Procedure: as §1, §2
(§3) Ccl11 has been linked to inflammation^23, while Cxcl9 is known as a natural antagonist to Ccl11 receptor CCR3^24. We then used Sulfo-EMCS-conjugated TLQP-21 to purify and identify receptor(s) for TLQP-21. […] The membrane fractions of rat brain was incubated with the crosslinker-conjugated TLQP-21, and analysed by Tricine-PAGE and Western blotting using Streptavidin-HRP for the biotin tag on TLQP-21. […] The membrane fraction of rat brain was applied to a TLQP-21 attached column, and the elutions were analysed on SDS-PAGE and silver staining for direct comparison to the negative control (without TLQP-21). […] The ˜30 kDa bands from both gels were cut out, trypsinised and analysed using LC-MS/MS Orbitrap.

[2] = tested on: chemokines Ccl11 and Cxcl9 in microglia; assay: PCR array of chemokine expression in microglia upon TLQP-21 stimulation; format: cell-based
gC1qR = molecular target: T1, gC1qR (Rattus norvegicus, UniProt O35796); assay: Receptor identification by chemical cross-linking / monomeric avidin column and LC-MS/MS; format: binding; conditions: rat brain / spinal cord membrane fractions; ~30 kDa band identified by LC-MS/MS
T1 construct: from tissue; host or cells: membrane fractions of rat brain (P4) and of 6 weeks old rat brain and spinal cord
T1 sequence (O35796 72-279): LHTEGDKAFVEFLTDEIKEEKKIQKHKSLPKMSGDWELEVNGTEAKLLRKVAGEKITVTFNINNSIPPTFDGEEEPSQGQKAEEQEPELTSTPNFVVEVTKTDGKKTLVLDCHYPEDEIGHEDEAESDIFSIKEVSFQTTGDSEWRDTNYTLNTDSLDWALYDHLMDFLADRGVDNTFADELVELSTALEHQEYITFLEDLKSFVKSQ
Procedure: FIG. 3A-F gC1qR is the receptor for TLQP-21. a, Biotinylated TLQP-21 was conjugated to Sulfo-EMCS cross-linker, and applied to membrane fractions of 6 weeks old rat brain and spinal cord for cross-linking (boric acid buffer, pH 8, with 150 mM NaCl, 3 hours incubation on ice). The reaction was terminated using 50 mM Tris buffer, and samples were ethanol precipitated and resolved using Tricine-PAGE and visualised by Western blot analysis by streptavidin-horse radish peroxidase. […] C, The ˜30 kDa band was analysed by LC-MS/MS Orbitrap following trypsinisation.
as §3, with “CCR3^24.” for “CCR3^24. We then used Sulfo-EMCS-conjugated TLQP-21 to purify and identify receptor(s) for TLQP-21.”, “Orbitrap. […]” for “Orbitrap.”
To elucidate the identity of the ˜30 kDa protein, which were apparent in two different experiments, the protein band from the monomeric avidin experiment was analysed using LC-MS/MS Orbitrap. […]

paw withdrawal threshold = assay: Intraplantar (hind paw) injection of peptide-treated macrophages, Von Frey paw withdrawal threshold; format: in vivo, rat
Procedure: FIG. 6A-C Intraplantar injection of macrophages stimulated with TLQP-21 can evoke mechanical hypersensitivity, and anti-gC1qR antibody reverses mechanical hypersensitivity in partial sciatic nerve ligation (PSNL) model. a, 80,000 macrophages treated with 100 nM TLQP-21 (closed circle) and scrambled TLQP-21 (open circle) for 24 hours have been intraplantarly injected into 3 weeks old male rats. Mechanical sensitivity was examined by electrical Von Frey test. […] C, Time course of paw withdrawal thresholds to Von Frey mechanical stimulation on an left hind paw of PSNL model rats. The left sciatic nerve was exposed, tied with non-absorbable silk thread, and wrapped loosely with a oxidized regenerated cellulose previously soaked in 200 μl of PBS (open triangle) or PBS containing 25 μg of anti-gC1qR (closed circle) or control antibodies (open circle). […] Mean±s.e.m. *P<0.05 vs controls.
Macrophages were treated with either 100 nM TLQP-21 or 100 nM scrambled TLQP-21 for 24 hours in culture. Following wash with PBS, macrophages (35,000 cells in 50 μl) were injected into the left hind paw. Ipsilateral paw withdrawal latency to Von Frey mechanical stimulation was measured at 1, 2, and 3 days after injection (n=9).
We hypothesised that macrophages stimulated by TLQP-21 affects sensory neurons and alter the mechanical sensitivity. We tested this hypothesis by measuring paw withdrawal thresholds in normal rats after hind paw injection of cultured macrophages that had been pre-treated with either TLQP-21 or ScrTLQP-21 for 24 hours. […] This effect lasted for 48 hours after injection. […] We then examined if in vivo application of the neutralising gC1qR antibody can prevent or delay development of neuropathic pain in PSNL model rats. The gC1qR antibody was applied to the site next to nerve ligation, in a cellulose membrane soaked form.

[3] = tested on: ipsilateral hind limb mechanical sensitivity; assay: Intraplantar injection of LQEQ-19, sensitivity to mechanical stimuli; format: in vivo, rat; conditions: 275 microgram
Excerpt: (§4) On the other hand, another VGF-derived peptide LQEQ-19 seems to have a direct role on DRG neurons. […] In summary, there are at least three active VGF peptides involved in pain pathways, i.e., TLQP-62, TLQP-21 and LQEQ-19, and four types of cells, namely, spinal microglia, macrophage, nociceptive DRG neurons, and dorsal horn neurons, which respond to these peptides. In this project we will focus on the putative role of VGF peptides in regulating the activity/excitability of DRG neurons and the novel VGF-induced signaling pathway in microglia/macrophage.

[4] = tested on: nociceptors (C-fibre component of compound action potentials in dorsal roots); assay: Compound action potential recordings in dorsal roots after application to DRG; conditions: application of LQEQ-19 to DRG, in vitro
Excerpt: (A) Typical average trace of 12 compound action potential recordings. The record was divided into 3 components according to the conduction velocities of Aβ fibres (6.2 m/s-2.1 m/s), Ad fibres (2.1 m/s-0.8 m/s) and C fibres (0.8 m/s-0.1 m/s) fibres. (B) Maximum amplitudes of Aβ, Ad and C components of compound action potentials. (C) Area under the curve of Aβ, Ad and C compound action potential. Bold line on the X axis indicates LQEQ-19 application
as §4

[5] = tested on: p38 MAP kinase in spinal microglia and BV-2 microglial cell line; conditions: cited from earlier work
pain behaviour = conditions: in vivo; cited from earlier work
[6] = tested on: p38 MAP kinase in spinal microglia; conditions: mice injected intrathecally; cited from earlier work
[7] = tested on: mechanical and cold sensitivity; conditions: intrathecal application to rats; cited from earlier work
spinal cord slices = conditions: cited from earlier work
hippocampal neurons = conditions: cited from earlier work

## cross-linker-conjugated TLQP-21: TLQP-21 with N-terminal biotin and extra C-terminal cysteine, conjugated to Sulfo-EMCS cross-linker (TLQPPASSRRRHFHHALPPARC; cyclised or stapled)
[1]
  increase in intracellular Ca2+ levels: able to induce an increase in intracellular Ca2+ levels similar to the wild type TLQP-21

## Thr-Leu-Gln-Pro-Pro-Ala-Ser-Ser-Arg-Arg-Arg-His-Phe-His-His-Ala-Leu-Pro-Pro-Ala-Arg [TLQP-21]
[1]; 100 nM TLQP-21, macrophages, ATP response not desensitised
  de-sensitisation to subsequent TLQP-21 stimulation: densensitises macrophage to further TLQP-21 stimulation; also recorded: induced de-sensitisation to subsequent TLQP-21 treatments
[1]
  increase in intracellular Ca2+ levels: elicits an increase in intracellular Ca2+ levels; also recorded: drives an increase in intracellular Ca2+; also recorded: causes intracellular Ca^2+ increase; also recorded: caused transient increase in intracellular Ca2+ levels
[1]; macrophages, extracellular Ca2+ depleted
  intracellular Ca2+ increase when extracellular Ca2+ is depleted: still observed
Cultured brain microglia
  increase in intracellular Ca2+: causes an increase in intracellular Ca2+; also recorded: responded to TLQP-21 similarly to macrophages
[2]
  Ccl11 upregulated: 2.78 fold
  Cxcl9 downregulated: 2.28 fold
gC1qR
  binding to the receptor gC1qR: co-purified with TLQP-21; also recorded: binds to the receptor gC1qR
Paw withdrawal threshold; injection of macrophages stimulated by TLQP-21
  duration of the effect on paw withdrawal threshold after injection: 48 h
Paw withdrawal threshold; macrophages treated with 100 nM peptide 24 hours, 35,000 cells in 50 μl into left hind paw, 1, 2, 3 days, n=9
  tactile allodynia: produced tactile allodynia
Paw withdrawal threshold; macrophages treated with 100 nM peptide for 24 hours, 80,000 cells injected intraplantarly, Von Frey
  paw withdrawal threshold: caused reduction of paw withdrawal thresholds at 24 and 48 hours after injection; also recorded: decreased markedly

## LQEQEELENYIEHVLLHRP [VGF-derived peptide]
[3]
  time of development of hypersensitivity after injection: 10 min
[3]; ipsilateral hind limb, p≦0.001 vs vehicle
  hypersensitivity to mechanical stimuli: associated with a hypersensitivity to mechanical stimuli; also recorded: causes a mechanical hypersensitivity in vivo
[4]
  C-fibre component of compound action potentials (amplitude, area under the curve); sensitisation of nociceptors: sensitises nociceptors in vitro; also recorded: significantly increases both the amplitude and the area under the curve
[5]
  p38 MAP kinase phosphorylation: causes P38 MAP kinase phosphorylation; also recorded: induces p38 MAP kinase phosphorylation
Pain behaviour
  pain behaviour in the formalin test: enhances pain behaviour
[6]
  phosphorylated p38 MAP kinase in spinal microglia: increase of phosphorylated p38 MAP kinase

B1: Thr-Leu-Gln-Pro-Pro-Ala-Ser-Ser-Arg-Arg-Arg-His-Phe-His-His-Ala-Leu-Pro-Pro-Ala-Arg-His-His-Pro-Asp-Leu-Glu-Ala-Gln-Ala-Arg-Arg-Ala-Gln-Glu-Glu-Ala-Asp-Ala-Glu-Glu-Arg-Arg-Leu-Gln-Glu-Gln-Glu-Glu-Leu- … (peptide)
chain: TLQPPASSRRRHFHHALPPARHHPDLEAQARRAQEEADAEERRLQEQEELENYIEHVLLHRP
modifications: TLQP-62 peptide from VGF
notes: VGF-derived peptide
[7]
  pain behaviour (mechanical and cold allodynia): induces pain behaviour (cold and mechanical hypersensitivity); also recorded: long-lasting mechanical and cold behavioural allodynia
Spinal cord slices
  frequency of spontaneous excitatory post synaptic currents: increase in the frequency of spontaneous excitatory post synaptic currents
Hippocampal neurons
  synaptic activity: increase synaptic activity
